From US5274121A, “N-methyl-N-[4-(1-pyrrolidinyl)-2-butynyl]amide congeners as muscarinic agents” (priority 1992, dated 1993) come the findings set out here.

Where two headings read alike, the source gives them in different places.

The target in experiment [1] is T1, muscarinic receptors, NG108-15 cell membranes (m3 AChR) (Mus musculus, UniProt P32211).
T1 construct: membranes from NG108-15 cells; endogenous in cells; host or cells: NG108-15 neuroblastoma x glioma hybrid cells (crude membrane fraction)
T1 sequence (P32211 1-479): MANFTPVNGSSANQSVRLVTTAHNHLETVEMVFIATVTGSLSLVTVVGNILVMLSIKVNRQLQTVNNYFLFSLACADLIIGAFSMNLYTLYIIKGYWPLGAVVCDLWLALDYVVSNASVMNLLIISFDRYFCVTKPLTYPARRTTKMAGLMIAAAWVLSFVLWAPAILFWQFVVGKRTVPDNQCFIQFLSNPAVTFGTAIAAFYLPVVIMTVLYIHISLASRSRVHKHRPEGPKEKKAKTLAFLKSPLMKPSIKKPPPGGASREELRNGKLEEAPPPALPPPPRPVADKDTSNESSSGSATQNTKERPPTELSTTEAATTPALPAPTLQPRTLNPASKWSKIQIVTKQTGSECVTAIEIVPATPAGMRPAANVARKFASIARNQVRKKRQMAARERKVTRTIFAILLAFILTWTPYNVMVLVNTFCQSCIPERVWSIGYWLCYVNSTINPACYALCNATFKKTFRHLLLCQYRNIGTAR
The experiment in a line: Inhibition of [3H]-NMS binding to membranes from NG108-15 cells. The note with it: for inhibition at 100 µM: NG108-15 cells, conc. of compounds = 100 μM; for binding to muscarinic receptors, in words: 3H-NMS binding, NG108-15 and SK-N-SH membranes. An excerpt: (§1) Compounds of the present invention were screened for their biological activity. Assay systems using SK-N-SH human neuroblastoma cells which express only m4 -AChRs coupled to PI turnover, and NG108-15 neuroblastoma x glioma cells which express only m3 AChRs coupled to adenylate cyclase inhibition were used.
(§2) Compounds of the present invention were also screened for their relative binding affinities. Assay systems which measured the inhibition of ^3 H-N-methylscopolamine (^3 H-NMS) binding to membranes from NG108-15 cells and membranes from SK-N-SH cells were used.
(§3) Inhibition of [^3 H]-NMS binding
(§4) Cells were grown to confluence, harvested, and a crude membrane fraction was obtained. […] The total volume was 1 mL. The incubation was terminated by rapid filtration over GF/B filters using a Brandel cell harvester. The filters were washed three times with ice-cold 0.9% NaCl, equilibrated in scintillation counting fluid and counted on a Beckman LS 5801 liquid scintillation counter at 47% efficiency. Non-specific binding was determined by coincubation with 1 μM atropine, and amounted to less than 15% of total counts. It was routinely subtracted from the total counts.

In experiment [2] the target is T2, muscarinic receptors, SK-N-SH cell membranes (m4 AChR) (Homo sapiens, UniProt P20309).
T2 construct: membranes from SK-N-SH cells; endogenous in cells; host or cells: SK-N-SH human neuroblastoma cells (crude membrane fraction)
T2 sequence (P20309 whole entry): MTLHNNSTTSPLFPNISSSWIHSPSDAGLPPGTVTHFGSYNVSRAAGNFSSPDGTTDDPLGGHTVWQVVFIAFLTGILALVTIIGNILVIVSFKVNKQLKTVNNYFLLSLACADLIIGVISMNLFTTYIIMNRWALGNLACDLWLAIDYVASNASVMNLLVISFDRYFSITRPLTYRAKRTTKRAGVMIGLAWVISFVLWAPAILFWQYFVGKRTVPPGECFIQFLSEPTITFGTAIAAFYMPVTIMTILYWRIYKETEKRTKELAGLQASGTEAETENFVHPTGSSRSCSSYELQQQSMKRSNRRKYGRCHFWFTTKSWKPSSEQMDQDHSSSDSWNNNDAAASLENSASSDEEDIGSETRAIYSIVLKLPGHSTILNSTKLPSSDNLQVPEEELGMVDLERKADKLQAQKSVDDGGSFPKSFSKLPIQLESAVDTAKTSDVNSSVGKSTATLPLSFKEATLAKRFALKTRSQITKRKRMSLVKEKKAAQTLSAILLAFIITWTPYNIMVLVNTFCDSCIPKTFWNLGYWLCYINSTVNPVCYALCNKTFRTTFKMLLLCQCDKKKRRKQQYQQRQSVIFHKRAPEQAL
Nature of the experiment: Inhibition of [3H]-NMS binding to membranes from SK-N-SH cells. The note with it: SK-N-SH cells; conc. of compounds = 100 μM.
Text: as §1, §2, §3, §4

The subject of experiment [3] is NG108-15 neuroblastoma x glioma cells (m3 AChR). The experiment in a line: Inhibition of PGE1-stimulated cAMP levels in NG108-15 cells. It is filed as cell-based. Particulars: for inhibition at 100 µM: relative to control with no compounds added, conc. of compounds = 100 μM, read-out: cAMP Inhib; for agonist activity, in words: Table I assays. Here is the method:
(§5) Compounds of the present invention were tested for their binding affinities and activation of second messengers in selective muscarinic cholinergic receptor systems. It is believed that m1 -, m4 -, and m5 AChRs couple exclusively to PI turnover, whereas m2 - and m3 -AChRs couple only to adenylate cyclase inhibition.
as §1
Inhibition of PGE1 -stimulated cAMP levels in NG108-15 cells
Cells were plated in 24-well plates and were grown to 90% confluence. The growth media was then replaced with a solution of 1 mM IBMX in DMEM-Hepes (0.5 mL per well) and the cells were incubated for 10 min at 37° C. Agonists were then added at a final concentration of 100 μM, along with PGE1 (final conc, 5 μM), and the cells were incubated for a further 15 min at 37° C. The reaction Was terminated by aspirating the solution and adding 0.5 mL of 0.1N HCl. In order to extract the cAMP from the cells, they were incubated in 0.1 N HCl for 30 min at room temperature. An aliquot (35 50 μL) was removed, lyophilized, and assayed for cAMP by radioimmunoassay.
In general terms: Changes in cAMP serve as a functional read-out for many G protein-coupled receptors.

The subject of experiment [4] is SK-N-SH human neuroblastoma cells (m4 AChR). Nature of the experiment: Stimulation of PI turnover in SK-N-SH cells. Particulars: Homo sapiens, 0.5 h; SK-N-SH cells; percent relative to the activity of OXO-M; conc. of compounds = 100 μM; read-out: Pi turnover. The class given is cell-based. Here is the method:
as §5, §1
Stimulation of PI turnover in SK-N-SH cells
Cells were plated into 24-well plates at 100,000 cells per well. After 24 hours, they were labeled overnight with 2 μCi per well of [^3 H]-myo-inositol (American Radiolabeled Chemicals, Inc., St. Louis, Mo.; 15 Ci/mM; 2 μL of stock per mL of media). The cells were then rinsed twice with 10 mM LiCl in DMEM-Hepes and the cells were incubated in this solution for 5 min at 37° C. The indicated compound was then added at a final concentration of 100 μM and the cells were incubated for another 30 min at 37° C. The reaction was stopped by aspirating the solution and adding cold methanol to the cells. After transferring the cells to a glass tube and sonicating briefly, chloroform and water were added to make a two-phase system. The upper aqueous phase was applied to 0.6 mL anion exchange columns (AG X8, Bio-Rad) and the columns were washed and total inositol phosphates were eluted with 1M ammonium formate and 0.1M formic acid.

Regarding `CC(=O)NCCCCCCC(=O)N(C)CC#CCN1CCCC1` [Compound 049], the inhibition at 100 µM stood at 20.4 ± 5.5% in experiment [1], 24.6 ± 3.1% in experiment [2] and 6.9 ± 2.9% in experiment [3] (NG108-15 cells).

Regarding `CN(CC#CCN1CCCC1)C(=O)CCCCCNC(=O)CCNC(=O)OC(C)(C)C` [Compound 051], the inhibition at 100 µM in experiment [1] turned out to be 51%; in experiment [2], 60%; in experiment [3] (NG108-15 cells), 0%.

As for `CN(CC#CCN1CCCC1)C(=O)CCCCCCCN` [Compound 046], the “binding to muscarinic receptors, in words” value (shortened to “binding”) in experiment [1] was “most active”. For the same compound, the inhibition at 100 µM was determined as 92.3 ± 3.2% in experiment [1], 93.7 ± 1.8% in experiment [2] and 0% in experiment [3] (NG108-15 cells). For the same compound, the “agonist activity, in words” value in experiment [3] was “inactive as agonists”.

Regarding `CN(CC#CCN1CCCC1)C(=O)CCCCCCNC(=O)OC(C)(C)C` [Compound 045], in experiment [1], the “binding” value is on record as “most active”. The figures for the inhibition at 100 µM in experiment [1], in experiment [2] and in experiment [3] (NG108-15 cells) were 77.9 ± 2.4%, 81.4 ± 2.4% and 0%, respectively. Moreover, in experiment [3], the “agonist activity, in words” value is “inactive as agonists”.

Turning to `CN(CC#CCN1CCCC1)C(=O)CCCCCNC(=O)c1ccccc1` [Compound 054], the inhibition at 100 µM in experiment [1] is 35%; in experiment [2], 49%; in experiment [3] (NG108-15 cells) it was 0%.

As to `CN(CC#CCN1CCCC1)C(=O)CCCCCNC(=O)OC(C)(C)C` [Compound 038], the figures for the inhibition at 100 µM in experiment [1], in experiment [2] and in experiment [3] (NG108-15 cells) were 31.9 ± 0.9%, 39.1 ± 2.4% and 0%, respectively.

In the case of `CC(=O)NCC(=O)N(C)CC#CCN1CCCC1` [Compound 010, N-Methyl-N-[4-(1-pyrrolidinyl)-2-butynyl]-2-(N-acetylamino)acetamide], the Emax at 100 µM in experiment [4] stood at 8 ± 3%. Further, the inhibition at 100 µM in experiment [1] is 24 ± 5.4%; in experiment [2] it was 12.5 ± 2.8%; in experiment [3] (NG108-15, NG108-15 cells) it was 14.1 ± 2.3%. Moreover, the “agonist activity in NG108-15 cells (cAMP inhibition), in words” value in experiment [3] (NG108-15 cells) is recorded as “substantial activity”.

As to `CN(CC#CCN1CCCC1)C(=O)CCNC(=O)OC(C)(C)C` [Compound 016], the inhibition at 100 µM in experiment [1] came to 36.3 ± 3.1%; in experiment [2], 45.1 ± 2.5%; in experiment [3] (NG108-15 cells), 12.5 ± 2.7%. In addition, in experiment [3] (NG108-15 cells), the “agonist activity in NG108-15 cells (cAMP inhibition), in words” value is “substantial activity”.

With `CC(=O)NCCCC(=O)N(C)CC#CCN1CCCC1` [Compound 022], the Emax at 100 µM in experiment [4] is 14 ± 5%. Besides, the inhibition at 100 µM in experiment [1] is 19.1 ± 1.8%; in experiment [2] it was 15.6 ± 1.6%; in experiment [3] (NG108-15, NG108-15 cells) it was 8 ± 3.7%. Moreover, in experiment [3] (NG108-15 cells), the “agonist activity in NG108-15 cells (cAMP inhibition), in words” value is “substantial activity”.

For `CN(CC#CCN1CCCC1)C(=O)CCCNC(=O)CNC(=O)OC(C)(C)C` [Compound 052, N-Methyl-N-[4-(1-pyrrolidinyl)-2-butynyl]-5-(N-[2-(N-Boc-amino)ethanoyl]amino)butanamide], the inhibition at 100 µM in experiment [1] worked out at 5%; in experiment [2] it was 40%; in experiment [3] (NG108-15 cells), 0%.

For the compound `CN(CC#CCN1CCCC1)C(=O)CCCCCCCNC(=O)OC(C)(C)C` [Compound 043], in experiment [1], the “binding” value is “most active”. Also, the inhibition at 100 µM amounted to 89 ± 2.5% in experiment [1], 92.1 ± 1% in experiment [2] and 0% in experiment [3] (NG108-15 cells). Further, the “agonist activity, in words” value in experiment [3] is “inactive as agonists”.

Regarding `CN(CC#CCN1CCCC1)C(=O)CCCCCCN` [Compound 047], the “binding” value in experiment [1] is given as “most active”. In addition, the inhibition at 100 µM was 72.1 ± 2.7% in experiment [1]; 81.9 ± 1% in experiment [2]; 3 ± 1.2% in experiment [3] (NG108-15, NG108-15 cells). Moreover, the “agonist activity, in words” value in experiment [3] was “inactive as agonists”.

In the case of `CC(=O)NCCC(=O)N(C)CC#CCN1CCCC1` [Compound 018], the inhibition at 100 µM amounted to 67.7 ± 3.6% in experiment [1]; 67.4 ± 3.3% in experiment [2]; 10.2 ± 4.8% in experiment [3] (NG108-15, NG108-15 cells).

With `CN(CC#CCN1CCCC1)C(=O)CNC(=O)OC(C)(C)C` [Compound 006, N-Methyl-N-[4-(1-pyrrolidinyl)-2-butynyl]-2-(N-Boc-amino) acetamide], the inhibition at 100 µM was 32.6 ± 1.5% in experiment [1], 40 ± 2.1% in experiment [2] and 7 ± 2.9% in experiment [3] (NG108-15 cells). Besides, in experiment [3] (NG108-15 cells), the “agonist activity in NG108-15 cells (cAMP inhibition), in words” value was “substantial activity”.

Take `CN(CC#CCN1CCCC1)C(=O)CCCCCN` [Compound 039]: the inhibition at 100 µM turned out to be 37.9 ± 3.2% in experiment [1]; 55.6 ± 1.9% in experiment [2]; 14.3 ± 1% in experiment [3] (NG108-15, NG108-15 cells). Also, the “agonist activity in NG108-15 cells (cAMP inhibition), in words” value in experiment [3] (NG108-15 cells) is given as “substantial activity”.

Consider `CN(CC#CCN1CCCC1)C(=O)CCCN` [Compound 021], for which the inhibition at 100 µM in experiment [1] was 12.1 ± 2.2%; in experiment [2], 20 ± 1.5%; in experiment [3] (NG108-15, NG108-15 cells), 3.7 ± 2%.

For the compound `CC(=O)NCCCCC(=O)N(C)CC#CCN1CCCC1` [Compound 040], the inhibition at 100 µM in experiment [1] was determined as 17.9 ± 7.9%; in experiment [2] it was 29.4 ± 1%; in experiment [3] (NG108-15 cells), 5.2 ± 2.2%.

As to `CN(CC#CCN1CCCC1)C(=O)CCCCCNC(=O)CNC(=O)OC(C)(C)C` [Compound 050], the inhibition at 100 µM was found to be 51% in experiment [1], 50% in experiment [2] and 0% in experiment [3] (NG108-15 cells).

Turning to `CN(CC#CCN1CCCC1)C(=O)CCCNC(=O)CCNC(=O)OC(C)(C)C` [Compound 053], the inhibition at 100 µM in experiment [1] was determined as 23%; in experiment [2], 40%; in experiment [3] (NG108-15 cells), 0%.

Take `CN(CC#CCN1CCCC1)C(=O)CCCCN` [Compound 036]: the inhibition at 100 µM came to 22.4 ± 3.2% in experiment [1]; 34.4 ± 0.3% in experiment [2]; 15.8 ± 2.7% in experiment [3] (NG108-15, NG108-15 cells). Also, the “agonist activity in NG108-15 cells (cAMP inhibition), in words” value in experiment [3] (NG108-15 cells) is listed as “substantial activity”.

As for `CC(=O)NCCCCCCCC(=O)N(C)CC#CCN1CCCC1` [Compound 048], the figures for the inhibition at 100 µM in experiment [1], in experiment [2] and in experiment [3] (NG108-15 cells) were 50.4 ± 4.9%, 59.1 ± 0.8% and 0%, respectively.

Consider `CN(CC#CCN1CCCC1)C(=O)CCCNC(=O)OC(C)(C)C` [Compound 020], for which the inhibition at 100 µM in experiment [1] was 24.4 ± 2.5%; in experiment [2], 32.1 ± 0.7%; in experiment [3] (NG108-15 cells) it was 3.5 ± 1.7%.

Consider `CN(CC#CCN1CCCC1)C(=O)CCCNC(=O)c1ccccc1` [Compound 055], for which the inhibition at 100 µM was determined as 16% in experiment [1], 27% in experiment [2] and 0% in experiment [3] (NG108-15 cells).
